Target: Wee1 (Homo sapiens, UniProt P30291)
Test: Cellular degradation of Wee1 by immunoblot, 6-hour treatment of MOLT4 cells
Assay type: cell-based
Set-up: endogenous in cells; host or cells: MOLT4 (wild type; CRBN-/- as control)
Details: MOLT4 cells; for percent Wee1 degradation at 1 µM: MOLT-4, 1 μM, approximated by immunoblot, read-out: Extent of Degradation of Wee1
Procedure: General Protocol: HT-29, MOLT4 wild type (WT) or CRBN^-/- cells were plated in a 6 well plate and treated for 6 hours with the indicated concentrations of the inventive compounds and control. HT-29 cells were cultured in McCoy's Media supplemented with 10% FBS and 1% Penicillin/Streptomycin. MOLT4 WT and CRBN^-/- cells were cultured in Roswell Park Memorial Institute (RPMI) medium supplemented with 10% FBS and 1% Penicillin/Streptomycin. Mycoplasma testing was performed every month and all lines were negative. Immunoblotting: Cells were washed with phosphate-buffered saline (PBS) and then lysed using radioimmunoprecipitation assay (RIPA) buffer supplemented with protease and phosphatase inhibitor cocktail (Roche) on ice for 15 minutes. The lysates were centrifuged at 14,000 rpm for 15 minutes at 4° C. and protein was quantified by bicinchoninic acid (BCA) assay (PierceTM). Primary antibodies used include: Wee1 ([…]) (Cell Signaling Technology®, 13084S), polo-like kinase 1 (PLK1) (Thermo Fisher Scientific, 37-7000), phosphor-cdc2 (Y15) (10A11) (Cell Signaling Technology®, […]), phospho-histone H3 ([…]) (Cell Signaling Technology®, […]), Ikaros ([…]) (Cell Signaling Technology®, 14859S), Aiolos ([…]) (Cell Signaling Technology®, 15103), casein kinase 1 alpha (Abcam®, 108296), β-actin (Cell Signaling Technology®, 8H10D10). FIG. 2A is an immunoblot showing that compound 13 degraded Wee1 after a 6-hour treatment in MOLT4 cells, and induced the downstream changes expected from Wee1 loss-including a decrease in phosphorylated cyclin-dependent kinase 1 (pCDK1) (Y15) and an increase in pH 3. […] Degradation of Wee1 by compound 13 was rescued in MOLT4 CRBN^-/- cells. MOLT4 WT and CRBN^-/- cells were plated in a 6-well plate at 2.25 million cells per well in 3 mL media (RPMI+10% FBS+1% Penn/Strep). After treatment with the indicated concentrations of candidate compounds, cells were incubated for 6 hours at 37° C. 5% CO2. To harvest, the cells were washed 1× with cold PBS, then collected by centrifugation. Cell pellets were lysed in RIPA buffer with protease and phosphatase inhibitors (Roche). Lysates were clarified by centrifugation, and protein concentrations were normalized using a BCA assay (Thermo ScientificTM). The samples were diluted with 4×LDS+10% β-mercaptoethanol, and were boiled at 95° C. for 5 minutes. Proteins of interest were then assessed by western blotting. […] The experimental protocol was the same as in Example 28.

Sequence of Wee1 (P30291 whole entry): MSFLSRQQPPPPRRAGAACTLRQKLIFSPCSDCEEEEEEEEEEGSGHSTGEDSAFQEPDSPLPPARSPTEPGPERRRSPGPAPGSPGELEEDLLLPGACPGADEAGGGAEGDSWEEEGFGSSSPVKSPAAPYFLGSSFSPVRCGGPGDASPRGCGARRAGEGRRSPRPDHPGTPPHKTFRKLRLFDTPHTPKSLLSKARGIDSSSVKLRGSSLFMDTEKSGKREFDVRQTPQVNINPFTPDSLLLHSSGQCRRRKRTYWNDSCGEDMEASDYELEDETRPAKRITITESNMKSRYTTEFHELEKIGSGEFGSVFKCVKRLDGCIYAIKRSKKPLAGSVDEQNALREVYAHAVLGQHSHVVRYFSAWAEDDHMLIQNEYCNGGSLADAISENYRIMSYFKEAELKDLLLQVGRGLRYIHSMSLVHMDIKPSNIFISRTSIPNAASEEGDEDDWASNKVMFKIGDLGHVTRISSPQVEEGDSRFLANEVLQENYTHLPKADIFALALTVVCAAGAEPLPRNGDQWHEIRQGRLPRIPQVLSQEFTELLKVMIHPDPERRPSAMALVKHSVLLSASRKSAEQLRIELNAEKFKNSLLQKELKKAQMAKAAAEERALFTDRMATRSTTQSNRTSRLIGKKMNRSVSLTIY

| percent Wee1 degradation at 1 µM [%] | Wee1 degradation (immunoblot) | SMILES |
| --- | --- | --- |
| > 50 | – | C=CCn1c(=O)c2cnc(Nc3ccc(N4CCN(C(=O)CCOCCNc5cccc6c5C(=O)N(C5CCC(=O)NC5=O)C6=O)CC4)cc3)nc2n1-c1cccc(C(C)(C)O)n1 (stereo not shown) [Compound 5, 4-((2-(3-(4-(4-((2-allyl-1-(6-(2-hydroxypropan-2-yl)pyridin-2-yl)-3-oxo-2,3-dihydro-1H-pyrazolo[3,4-d]pyrimidin-6-yl)amino)phenyl)piperazin-1-yl)-3-oxopropoxy)ethyl)amino)-2-(2,6-dioxopiperidin-3-yl)isoindoline-1,3-dione] |
| > 50 | – | C=CCn1c(=O)c2cnc(Nc3ccc(N4CCN(CCCNC(=O)CCOCCOCCOCCOCCNc5cccc6c5C(=O)N(C5CCC(=O)NC5=O)C6=O)CC4)cc3)nc2n1-c1cccc(C(C)(C)O)n1 (stereo not shown) [Compound 8, N-(3-(4-(4-((2-allyl-1-(6-(2-hydroxypropan-2-yl)pyridin-2-yl)-3-oxo-2,3-dihydro-1H-pyrazolo[3,4-d]pyrimidin-6-yl)amino)phenyl)piperazin-1-yl)propyl)-1-((2-(2,6-dioxopiperidin-3-yl)-1,3-dioxoisoindolin-4-yl)amino)-3,6,9,12-tetraoxapentadecan-15-amide] |
| 25 to 50 | – | C=CCn1c(=O)c2cnc(Nc3ccc(N4CCN(CCCNC(=O)CCOCCOCCOCCN5CCN(Cc6ccc(COc7cccc8c7CN([C@H]7CCC(=O)NC7=O)C8=O)cc6)CC5)CC4)cc3)nc2n1-c1cccc(C(C)(C)O)n1 [Compound 10, (S)—N-(3-(4-(4-((2-Allyl-1-(6-(2-hydroxypropan-2-yl)pyridin-2-yl)-3-oxo-2,3-dihydro-1H-pyrazolo[3,4-d]pyrimidin-6-yl)amino)phenyl)piperazin-1-yl)propyl)-3-(2-(2-(2-(4-(4-(((2-(2,6-dioxopiperidin-3-yl)-1-oxoisoindolin-4-yl)oxy)methyl)benzyl)piperazin-1-yl)ethoxy)ethoxy)ethoxy)propanamide] |
| > 50 | – | C=CCn1c(=O)c2cnc(Nc3ccc(N4CCN(CCCNc5cccc6c5C(=O)N(C5CCC(=O)NC5=O)C6=O)CC4)cc3)nc2n1-c1cccc(C(F)(F)F)n1 (stereo not shown) [Compound 18, 4-((3-(4-(4-((2-Allyl-3-oxo-1-(6-(trifluoromethyl)pyridin-2-yl)-2,3-dihydro-1H-pyrazolo[3,4-d]pyrimidin-6-yl)amino)phenyl)piperazin-1-yl)propyl)amino)-2-(2,6-dioxopiperidin-3-yl)isoindoline-1,3-dione] |
| > 50 | – | C=CCn1c(=O)c2cnc(Nc3ccc(N(C)CCCCNc4ccc5c(c4)C(=O)N(C4CCC(=O)NC4=O)C5=O)cc3)nc2n1-c1cccc(C(C)(C)O)n1 (stereo not shown) [Compound 16, 5-((4-((4-((2-Allyl-1-(6-(2-hydroxypropan-2-yl)pyridin-2-yl)-3-oxo-2,3-dihydro-1H-pyrazolo[3,4-d]pyrimidin-6-yl)amino)phenyl)(methyl)amino)butyl)amino)-2-(2,6-dioxopiperidin-3-yl)isoindoline-1,3-dione] |
| < 25 | – | C=CCn1c(=O)c2cnc(Nc3ccc(N4CCN(C(=O)CCOCCOCCOCCOCCNc5cccc6c5C(=O)N(C5CCC(=O)NC5=O)C6=O)CC4)cc3)nc2n1-c1cccc(C(C)(C)O)n1 (stereo not shown) [Compound 1, 4-((15-(4-(4-((2-allyl-1-(6-(2-hydroxypropan-2-yl)pyridin-2-yl)-3-oxo-2,3-dihydro-1H-pyrazolo[3,4-d]pyrimidin-6-yl)amino)phenyl)piperazin-1-yl)-15-oxo-3,6,9,12-tetraoxapentadecyl)amino)-2-(2,6-dioxopiperidin-3-yl)isoindoline-1,3-dione] |
| > 50 | – | C=CCn1c(=O)c2cnc(Nc3ccc(N4CCN(C(=O)CCOCCOCCNc5cccc6c5C(=O)N(C5CCC(=O)NC5=O)C6=O)CC4)cc3)nc2n1-c1cccc(C(C)(C)O)n1 (stereo not shown) [Compound 3, 4-((2-(2-(3-(4-(4-((2-allyl-1-(6-(2-hydroxypropan-2-yl)pyridin-2-yl)-3-oxo-2,3-dihydro-1H-pyrazolo[3,4-d]pyrimidin-6-yl)amino)phenyl)piperazin-1-yl)-3-oxopropoxy)ethoxy)ethyl)amino)-2-(2,6-dioxopiperidin-3-yl)isoindoline-1,3-dione] |
| 25 to 50 | – | C=CCn1c(=O)c2cnc(Nc3ccc(N(C)CCCCNc4cccc5c4C(=O)N(C4CCC(=O)NC4=O)C5=O)cc3)nc2n1-c1cccc(C(C)(C)O)n1 (stereo not shown) [Compound 15, 4-((4-((4-((2-Allyl-1-(6-(2-hydroxypropan-2-yl)pyridin-2-yl)-3-oxo-2,3-dihydro-1H-pyrazolo[3,4-d]pyrimidin-6-yl)amino)phenyl)(methyl)amino)butyl)amino)-2-(2,6-dioxopiperidin-3-yl)isoindoline-1,3-dione] |
| > 50 | – | C=CCn1c(=O)c2cnc(Nc3ccc(N4CCN(C(=O)CCOCCOCCOCCN5CCN(Cc6ccc(COc7cccc8c7CN([C@H]7CCC(=O)NC7=O)C8=O)cc6)CC5)CC4)cc3)nc2n1-c1cccc(C(C)(C)O)n1 [Compound 9, (S)-3-(4-((4-((4-(2-(2-(2-(3-(4-(4-((2-allyl-1-(6-(2-hydroxypropan-2-yl)pyridin-2-yl)-3-oxo-2,3-dihydro-1H-pyrazolo[3,4-d]pyrimidin-6-yl)amino)phenyl)piperazin-1-yl)-3-oxopropoxy)ethoxy)ethoxy)ethyl)piperazin-1-yl)methyl)benzyl)oxy)-1-oxoisoindolin-2-yl)piperidine-2,6-dione] |
| 25 to 50 | – | C=CCn1c(=O)c2cnc(Nc3ccc(N4CCN(C(=O)CCOCCOCCNc5cccc6c5CN(C5CCC(=O)NC5=O)C6=O)CC4)cc3)nc2n1-c1cccc(C(C)(C)O)n1 (stereo not shown) [Compound 4, 3-(4-((2-(2-(3-(4-(4-((2-allyl-1-(6-(2-hydroxypropan-2-yl)pyridin-2-yl)-3-oxo-2,3-dihydro-1H-pyrazolo[3,4-d]pyrimidin-6-yl)amino)phenyl)piperazin-1-yl)-3-oxopropoxy)ethoxy)ethyl)amino)-1-oxoisoindolin-2-yl)piperidine-2,6-dione] |
| < 25 | Degradation of Wee1 was also observed | C=CCn1c(=O)c2cnc(Nc3ccc(N4CCN(CCCCCC(=O)N[C@H](C(=O)N5C[C@H](O)C[C@H]5C(=O)N[C@@H](C)c5ccc(-c6scnc6C)cc5)C(C)(C)C)CC4)cc3)nc2n1-c1cccc(C(C)(C)O)n1 [Compound 21, tert-butyl (2S,4R)-1-((S)-2-(6-(4-(4-((2-allyl-1-(6-(2-hydroxypropan-2-yl)pyridin-2-yl)-3-oxo-2,3-dihydro-1H-pyrazolo[3,4-d]pyrimidin-6-yl)amino)phenyl)piperazin-1-yl)hexanamido)-3,3-dimethylbutanoyl)-4-hydroxy-N—((S)-1-(4-(4-methylthiazol-5-yl)phenyl)ethyl)pyrrolidine-2-carboxamide] |
| 25 to 50 | – | C=CCn1c(=O)c2cnc(Nc3ccc(N4CCN(C(=O)CCCCCCCCOc5cccc6c5C(=O)N(C5CCC(=O)NC5=O)C6=O)CC4)cc3)nc2n1-c1cccc(C(C)(C)O)n1 (stereo not shown) [Compound 6, 4-((9-(4-(4-((2-allyl-1-(6-(2-hydroxypropan-2-yl)pyridin-2-yl)-3-oxo-2,3-dihydro-1H-pyrazolo[3,4-d]pyrimidin-6-yl)amino)phenyl)piperazin-1-yl)-9-oxononyl)oxy)-2-(2,6-dioxopiperidin-3-yl)isoindoline-1,3-dione] |
